In general, IC50 refers to the concentration that inhibits the measured activity by half. What is called EC50 is the midpoint of the concentration-response curve. As a reminder, the LD50 is the dose expected to kill half of the subjects tested.

We go through 8 molecules from patent US6387891B2, “COMPOUNDS WITH CHELATION AFFINITY AND SELECTIVITY FOR FIRST TRANSITION SERIES ELEMENTS AND THEIR USE IN COSMETICS AND PERSONAL CARE PRODUCTS, INHIBITION OF METALLOENZYMES, AND INHIBITION OF REPERFUSION INJURY” (Concat, Ltd., priority 2000, dated 2002).

Data set [1] has as its system BGM cells (a continuous cell line of monkey origin). Description: Inhibition of mammalian cell replication in vitro. The class given is cell-based. As for the experimental part:
Concentrations of this ligand of 0.009 mM/L inhibited the growth of both BGM cells (a continuous cell line of monkey origin) and HFF cells (human foreskin fibroblasts).

Data set [2] deals with HFF cells (human foreskin fibroblasts). Description: Inhibition of mammalian cell replication in vitro. The class given is cell-based.
Data set [3] in a line: Cytotoxicity study in AIDS antiviral screen (soluble-formazan assay). The class given is cell-based. As to conditions: human, T4 lymphocytes. As for the experimental part: (§1) The antiviral efficacy of N,N′,N″-tris(5-t-butyl-2-hydroxy-benzyl)-1,4,7-triazacyclononane against the AIDS virus was evaluated employing published methodology (see, “New Soluble-Formazin Assay for HIV-1 Cytopathic Effects: Application to High Flux Screening of Synthetic and Natural Products for AIDS-Antiviral Activity,” J. Natl. Cancer Inst. 81:577-586, 1989).

A further data set concerns AIDS virus. In words: Inhibition of AIDS virus replication (soluble-formazan assay for HIV-1 cytopathic effects). The class given is cell-based. Conditions: Human immunodeficiency virus 1; read-out: EC50 (inhibition of the AIDS Virion). As for the experimental part:
as §1
Background: Cytopathic effects are the visible damage that an infection or toxin causes in cultured cells.

The subject of another data set is Streptococcus Sobrinus. In words: Inhibition of cariogenic bacteria (MIC, RPMI medium). As to conditions: read-out: minimum inhibitory concentration (MIC). The class given is cell-based.
For a further data set, the system named is Enterococcus fecalis. In words: Inhibition of bacterial replication in vitro (MIC). The class given is cell-based. As to the method: (§2) N,N′,N″-tris(dihydroxyphosphorylmethyl)-1,4,7-triazacyclononane was prepared as described in Example 1C in U.S. Pat. No. 5,236,695. Studies were performed to determine its ability to inhibit bacterial growth. For Streptococcus hemolyticus, Listeria monocytogenes, Enterobacter cloacae and Klebsiella pneumoniae the minimum inhibitory concentration was determined to be 0.15 mM/L. For Enterococcus fecalis, Pseudomonas aeruginosa and Acinobacter anitratus the minimum inhibitory concentration was determined to be 0.3 mM/L.

A further data set deals with Pseudomonas aeruginosa. In words: Inhibition of bacterial replication in vitro (MIC). The class given is cell-based. As to the method:
as §2

The subject of another data set is Klebsiella pneumoniae. Description: Inhibition of bacterial replication in vitro (MIC). The class given is cell-based. As for the experimental part:
as §2

Data set [4] has as its system Streptococcus hemolyticus. In words: Inhibition of bacterial replication in vitro (MIC). The class given is cell-based. As to the method: as §2
For a further data set, the system named is Listeria monocytogenes. Description: Inhibition of bacterial replication in vitro (MIC). The class given is cell-based. As to the method: as §2
In a further data set the test system is Enterobacter cloacae. Description: Inhibition of bacterial replication in vitro (MIC). The class given is cell-based. As to the method: as §2
A further data set concerns Acinobacter anitratus. In words: Inhibition of bacterial replication in vitro (MIC). The class given is cell-based. As for the experimental part: as §2
The nature of data set [5]: Chemical antioxidant properties, coupled oxidation of carotene and linoleic acid. The class given is physicochemical. As to the method:
Antioxidant properties of N,N′,N″-tri(dihydroxyphosphoryl methyl)-1,4,7-triazacyclononane were evaluated employing the coupled oxidation of carotene and linoleic acid, using the method described in “Phenolic Antioxidants of Dried Soybeans,” Hammerschmidt, P. A., Praat, D. E., 1978, Journal of Food Sciences, vol. 43, pp. 556-559.

In the next data set the test system is Trichophyton tonsuras. Description: Inhibition of mycotic cell replication in vitro (MIC). The class given is cell-based. As for the experimental part: (§3) N,N′,N″-tris(dihydroxyphosphorylmethyl)-1,4,7-triazacyclononane was prepared as described in Example 1C in U.S. Pat. No. 5,236,695. Studies were performed to determine its ability to inhibit growth of mycotic (fungal) organisms.
(§4) For Microsporum canis the minimum inhibitory concentration was 0.233 mM/L or less. For Candida albicans and Trichophyton rubrum the minimal inhibitory concentration was 2.33 mM/L. For Trichophyton mentagrophytes, Trichophyton tonsuras and Trichophyton violaceum the minimal inhibitory concentration was 23.3 mM/L.

The test system of the next data set is Candida albicans. The data set is described as above. The class given is cell-based. As to the method: as §3, §4
Data set [6] has as its system Trichophyton mentagrophytes. The data set is described as above. The class given is cell-based. As for the experimental part:
as §3, §4

Another data set relates to Trichophyton rubrum. The description is as above. The class given is cell-based. As to the method:
as §3, §4

The subject of a further data set is Trichophyton violaceum. The data set is described as above. The class given is cell-based. As to the method: as §3, §4
In another data set the test system is Microsporum canis. The data set is described as above. The class given is cell-based. As to the method: as §3, §4
The next data set deals with Sprague Dawley rats. In words: Subacute toxicity, repeated intravenous doses in rats. The class given is in vivo. Conditions: 0.05 millimoles per kg i.v. on 10 days. The source says:
Ten male Sprague Dawley rats 29 days old and weighing between 73.4 and 87.8 grams at the beginning of the experiment were randomized, employing the block stratification method, into two groups consisting of five rats each. On each of days 1, 2, 3, 6, 7, 8, 9, 10, 13 and 14 of the experiment one set of rats received an intravenous dose of N,N′,N″-tri(dihydroxyphosphoryl methyl)-1,4,7-triazacyclononane (Example 1C in U.S. Pat. No. 5,236,695) equal to 0.05 millimoles per kg of initial body weight (experimental group) while the other group received an equivalent volume of normal saline solution. The weights of the animals were recorded three times per week and the animals were sacrificed on the 28th day, major organs removed and weighed and tissues removed for microscopic examination.

For data set [7], the system named is mature, nonreplicating cultures of HFF (human foreskin fibroblasts). Description: Toxicity toward nonproliferating mammalian cells in vitro. The class given is cell-based. Conditions: 0.3 mM, maintenance media, five-day period of observation.
The subject of data set [8] is 57 human cancer cell lines. Description: In vitro proliferation of 57 human cancer cell lines. The class given is cell-based. Conditions: cell line groups compared. As to the method:
The ability of N-methyl-N′,N″-bis(dihydroxyphorylmethyl)-1,4,7-triazacyclononane to inhibit proliferation of 57 human cancer cell lines in vitro was evaluated employing published methods as published in J. Natl. Cancer Inst., 83:757-766, 1991. The concentration of agent that caused 50% inhibition of cell replication relative to controls [Gl50] were determined. In one set of experiments the mean midpoint of Gl50 for all cell lines tested was (10)^−4.72 with a delta value of (10)^2.95 and a range of (10)^3.67.

Data set [9] can be described thus: Acute intravenous toxicity in mice. The class given is in vivo. Conditions: mouse, in vivo, 4 mM/kg, intravenous. As for the experimental part:
(§5) This example illustrates the low in vivo toxicity of a representative ligand administer intravenously to mice.
(§6) This in vivo LD50 toxicity dose results in an instantaneous in vivo concentration which is orders of magnitude greater than the dose of this agent which inhibits mammalian cell replication in vitro (0.009 mM/L).

The subject of another data set is mice. In words: Acute intravenous toxicity in mice. The class given is in vivo. Conditions: 4.0 mM/kg single intravenous dose. As to the method: as §5, §6
A further data set addresses pure MMP-2 enzyme (Homo sapiens, UniProt P08253). In words: Inhibition of pure MMP-2 enzyme. The class given is biochemical.
Another data set deals with underarm odor. Description: Inhibition of underarm odor in human subjects. The class given is in vivo. The source says: Human subjects applied a 30% aqueous solution of the neutral sodium salt of N,N′,N″-tri(dihydroxyphosphoryl methyl)-1,4,7-triazacyclononane in one axilla and a control aqueous solution in the other.
For another data set, the system named is monocyte. Description: Monocyte penetration of Matrigel membranes. The class given is cell-based. The source says: (§7) Matrix metalloproteinase-2 (MMP-2) secreted by cells into growth media was separated by gel electrophoresis into its distinct band. […] Concentrations of less than 10 microM of sodium salt of N,N′,N″-tri(dihydroxyphosphoryl methyl)-1,4,7-triazacyclononane inhibited monocyte penetration of Matrigel membranes.

In data set [10] the test system is isolated working rat heart. In words: Ischemic/reperfused isolated working rat heart model. As for the experimental part:
Using the ischemic/reperfused isolated working rat heart model of Ferdinandy et al., Cardiovasc. […] Concentrations of this agent as high as 7.2 mM had no adverse effects on the heart either before or after hypoxia/reperfusion injury.

Data set [11] concerns the target T1, Matrix metalloproteinase-2 (MMP-2) secreted by cells (Homo sapiens, UniProt P08253).
T1 construct: Matrix metalloproteinase-2 (MMP-2) secreted by cells into growth media; endogenous in cells
In words: MMP-2 inhibition after gel electrophoresis, incubation in developing medium. The class given is biochemical. Conditions: MMP-2 band after gel electrophoresis.
Description: as §7

Counter-ions that a name gives are not always drawn.

T1 sequence (P08253 110-660, species assumed): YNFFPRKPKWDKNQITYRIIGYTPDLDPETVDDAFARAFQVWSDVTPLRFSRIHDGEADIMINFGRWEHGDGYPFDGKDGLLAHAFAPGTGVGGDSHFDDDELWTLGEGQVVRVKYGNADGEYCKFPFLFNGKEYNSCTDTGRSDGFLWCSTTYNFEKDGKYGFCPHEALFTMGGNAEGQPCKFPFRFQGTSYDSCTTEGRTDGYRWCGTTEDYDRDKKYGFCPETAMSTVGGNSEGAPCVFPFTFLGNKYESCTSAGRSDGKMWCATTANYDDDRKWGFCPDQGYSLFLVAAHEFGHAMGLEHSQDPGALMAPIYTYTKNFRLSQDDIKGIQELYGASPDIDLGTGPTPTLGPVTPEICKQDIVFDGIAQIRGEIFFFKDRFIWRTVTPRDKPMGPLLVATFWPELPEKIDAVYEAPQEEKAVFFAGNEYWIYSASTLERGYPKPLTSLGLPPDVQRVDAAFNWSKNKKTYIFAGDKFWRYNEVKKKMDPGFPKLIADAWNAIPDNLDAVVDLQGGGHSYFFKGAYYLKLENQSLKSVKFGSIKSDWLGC
Chain of pure MMP-2 enzyme (P08253 110-660): as the sequence (P08253 110-660, species assumed) above

In the case of `O=C(O)CN(CCN(CC(=O)O)CC(=O)O)CCN(CC(=O)O)CC(=O)O` [Diethylene triamine penta acetic acid, reference compound], the “concentration that inhibited BGM cell growth” value in data set [1] is recorded as 0.075 mM/L. The “concentration that inhibited HFF cell growth” value in data set [2] stood at 0.3 mM/L.
For `O=C(O)CN1CCN(CC(=O)O)CCN(CC(=O)O)CC1` [Example 1.3.6.1, N,N′,N″-Tris(carboxymethyl)-1,4,7-triazacyclononane], the “concentration that inhibited BGM cell growth” value in data set [1] is 0.009 mM/L. For the same molecule, the “concentration that inhibited HFF cell growth” value in [2] stood at 0.019 mM/L.
For the molecule `CCOC(=O)CN1CCN(CC(=O)OCC)CCN(CC(=O)OCC)CC1` [Example 1.3.6.13, N,N′,N″-Tris(ethoxycarbonylmethyl)-1,4,7-triazacyclononane], the “concentration that inhibited BGM cell growth” value in [1] is on record as 0.04 mM/L. In [2], the “concentration that inhibited HFF cell growth” value is on record as 0.16 mM/L.
Regarding `CC(C)(C)c1ccc(O)c(CN2CCN(Cc3cc(C(C)(C)C)ccc3O)CCN(Cc3cc(C(C)(C)C)ccc3O)CC2)c1` [N,N′,N″-tris(5-t-butyl-2-hydroxy-benzyl)-1,4,7-triazacyclononane], half-maximal inhibition in data set [3] (IC50) was put at 110 µM. Besides, the EC50 with AIDS virus is 3 µM.
Take `O=P(O)(O)CN1CCN(CP(=O)(O)O)CCN(CP(=O)(O)O)CC1` [N,N′,N″-tris(dihydroxyphosphorylmethyl)-1,4,7-triazacyclononane]: the MIC in the data set with Streptococcus Sobrinus is less than 20 µM. The “concentration that inhibited BGM cell growth” value in [1] turned out to be 0.009 mM/L. Also, the minimum inhibitory concentration in the data set on Enterococcus fecalis is 0.3 mM/L; in the data set with Pseudomonas aeruginosa it was 0.3 mM/L; in the data set on Klebsiella pneumoniae, 0.15 mM/L; in [4], 0.15 mM/L; with Listeria monocytogenes it was 0.15 mM/L; in the data set with Enterobacter cloacae it was 0.15 mM/L. For the same molecule, the minimum inhibitory concentration with Acinobacter anitratus is listed as 0.3 mM/L; in the data set with Microsporum canis it was not above 0.233 mM/L. Besides, the “concentration that inhibited HFF cell growth” value in data set [2] came to 0.009 mM/L. Further, the antioxidant activity result in data set [5] is “antioxidant activity similar to the commonly used food antioxidant butylated hdryoxyanisole (BHA)”. The minimal inhibitory concentration with Trichophyton tonsuras was determined as 23.3 mM/L; in the data set on Candida albicans, 2.33 mM/L; in data set [6], 23.3 mM/L; in the data set on Trichophyton rubrum, 2.33 mM/L; with Trichophyton violaceum it was 23.3 mM/L. Also, the “weight or rate of weight gain vs control” value in the data set with Sprague Dawley rats (injection and two-week post-injection period) is on record as “no statistically significant difference in weight or rate of weight gain”. The “microscopic examination of tissues vs control” value with Sprague Dawley rats (necropsy on 28th day) is listed as “no differences between the tissues”. Also, the “weights of major organs vs control” value in the data set with Sprague Dawley rats (sacrificed on 28th day) is “no differences observed between the weights of major organs”. In data set [7], the “effect on resting (nonreplicating) HFF cells” value is reported as “no effect on the resting cells was observed”.
Turning to `CN1CCN(CP(=O)(O)O)CCN(CP(=O)(O)O)CC1` [N-methyl-N′,N″-bis(dihydroxyphorylmethyl)-1,4,7-triazacyclononane], the “relative sensitivity of cancer cell groups” value in data set [8] was “leukemia and colon cancer cells were more sensitive to the agent than were other cancer cells”.
Take `O=P(O)(O)CN1CCN(CP(=O)(O)O)CCN(CP(=O)(O)O)CC1` [sodium salt of N,N′,N″-tris-(dihydroxyphosphorylmethyl)-1,4,7-triazacyclononane]: the LD50 in data set [9] is more than 4000 µmol/kg. Besides, the “mice surviving for over 14 days” value in the data set with mice is “Over 50%”. Also, the 50% inhibitory concentration (IC50) at pure MMP-2 enzyme was less than 10 µM. For the same molecule, in the data set on underarm odor (30% aqueous solution in one axilla, control aqueous solution in the other), the “subjective evaluation of underarm odor” value is recorded as “less underarm odor in the treated axilla than in the control”. The “duration of decreased underarm odor after a single application” value in the data set on underarm odor (30% aqueous solution, single application) is “up to one week”. Moreover, the “concentration that inhibited monocyte penetration of Matrigel membranes” value in the data set on monocyte was “less than 10 microM”.
With “salts of N,N′,N″-tri(dihydroxyphosphoryl methyl)-1,4,7-triazacyclononane”, in data set [10] (before or after hypoxia/reperfusion injury), the “concentration with no adverse effects on the heart” value is not below 7200 µM. Also, in [10] (ischemic/reperfused isolated working rat heart), the “concentration in the perfusing medium effective in improving myocardial functional parameters and decreasing the incidence of ventricular fibrillation” value was not above 0.1 mM. For the same molecule, the “concentration that inhibited enzymatic action of MMP-2” value in data set [11] is on record as “less than 10 microM”.
